Data as given in patent publication US7345049B2, “Phenylalanine derivatives” (Ajinomoto Co., Inc., priority 2003, dated 2008).

How the values were obtained:
[1] = Pharmacokinetic study by intravenous administration to a rat; assay type: in vivo; details: plasma, 1 mg/kg; intravenous single dose, 1 mg/mL solution at 1 mL/kg, Wistar rat, active form; read-out: Total body clearance CLtot (converted)
Protocol: Pharmacokinetic Study by Intravenous Administration to a Rat
After the compounds of the present invention wherein R11 to R141 are a hydroxyl group, which were active forms, were weighed by a scale, they were adjusted by dimethylsulfoxide to become 10 mg/mL. Polyethylene glycol 400 and distilled water were added thereto to prepare 1 mg/mL of an administration solution. 1 mg/mL of the administration solution was intravenously administered as a single dose to a Wistar rat in an amount of 1 mL/kg. 1, 5, 10, 30, 60 and 180 minutes later, the drug concentration in the blood plasma obtained by blood drawing from its cervical vein over time under anesthesia was determined with LC/MS. From the obtained results, the area under the plasma concentration time curve from zero to time infinity (AUCinf (iv)) was calculated in accordance with the trapezoidal method of pharmacokinetic analysis. The total body clearance (CLtot, [L/hr/kg]) was calculated as an index of drug disappearance in the blood plasma from a dose [mg/kg] and AUC [μg×hr/mL] in accordance with the formula: CLtot=Dose÷AUCinf(iv).

[2] = target: T1, VCAM-1/α4β1 integrin binding (Homo sapiens, UniProt P05556+P13612); assay: Assay of antagonistic activity to VCAM-1/α4β1 integrin binding under the existence of blood serum (Jurkat cell adhesion to VCAM-1/Fc); assay type: cell-based; details: Jurkat cells, recombinant human VCAM-1/Fc, 50% human blood serum
T1 construct: Jurkat (ATCC TIB-152), known to express integrin α4β1; endogenous in cells; host or cells: Jurkat (ATCC TIB-152)
T1 sequence (P13612 34-1032): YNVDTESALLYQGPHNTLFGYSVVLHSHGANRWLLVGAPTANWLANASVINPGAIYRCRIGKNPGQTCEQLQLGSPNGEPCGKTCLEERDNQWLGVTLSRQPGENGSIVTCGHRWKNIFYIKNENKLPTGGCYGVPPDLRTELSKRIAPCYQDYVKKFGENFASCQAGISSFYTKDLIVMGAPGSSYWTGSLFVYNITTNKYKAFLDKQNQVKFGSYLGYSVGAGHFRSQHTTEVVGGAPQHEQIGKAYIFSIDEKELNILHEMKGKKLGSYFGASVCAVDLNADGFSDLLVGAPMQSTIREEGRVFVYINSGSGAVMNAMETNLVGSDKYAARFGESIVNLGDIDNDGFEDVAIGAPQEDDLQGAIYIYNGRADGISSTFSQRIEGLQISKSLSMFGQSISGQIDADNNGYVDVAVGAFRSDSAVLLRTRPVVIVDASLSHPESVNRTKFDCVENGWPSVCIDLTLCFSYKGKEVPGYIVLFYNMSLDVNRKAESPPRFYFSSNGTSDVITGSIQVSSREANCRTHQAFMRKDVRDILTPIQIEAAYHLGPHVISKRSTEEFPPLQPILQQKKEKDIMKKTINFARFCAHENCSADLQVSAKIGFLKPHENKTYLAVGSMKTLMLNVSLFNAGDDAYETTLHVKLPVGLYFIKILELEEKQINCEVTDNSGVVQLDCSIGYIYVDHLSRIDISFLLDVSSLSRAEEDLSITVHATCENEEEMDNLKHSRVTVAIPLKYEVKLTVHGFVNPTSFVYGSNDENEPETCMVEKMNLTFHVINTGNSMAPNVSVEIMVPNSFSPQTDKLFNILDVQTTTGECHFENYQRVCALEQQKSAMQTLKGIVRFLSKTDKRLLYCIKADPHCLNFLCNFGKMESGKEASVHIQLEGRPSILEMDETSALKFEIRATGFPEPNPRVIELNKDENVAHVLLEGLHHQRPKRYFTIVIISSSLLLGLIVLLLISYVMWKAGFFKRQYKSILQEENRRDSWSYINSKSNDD
T1 sequence (P05556 21-798): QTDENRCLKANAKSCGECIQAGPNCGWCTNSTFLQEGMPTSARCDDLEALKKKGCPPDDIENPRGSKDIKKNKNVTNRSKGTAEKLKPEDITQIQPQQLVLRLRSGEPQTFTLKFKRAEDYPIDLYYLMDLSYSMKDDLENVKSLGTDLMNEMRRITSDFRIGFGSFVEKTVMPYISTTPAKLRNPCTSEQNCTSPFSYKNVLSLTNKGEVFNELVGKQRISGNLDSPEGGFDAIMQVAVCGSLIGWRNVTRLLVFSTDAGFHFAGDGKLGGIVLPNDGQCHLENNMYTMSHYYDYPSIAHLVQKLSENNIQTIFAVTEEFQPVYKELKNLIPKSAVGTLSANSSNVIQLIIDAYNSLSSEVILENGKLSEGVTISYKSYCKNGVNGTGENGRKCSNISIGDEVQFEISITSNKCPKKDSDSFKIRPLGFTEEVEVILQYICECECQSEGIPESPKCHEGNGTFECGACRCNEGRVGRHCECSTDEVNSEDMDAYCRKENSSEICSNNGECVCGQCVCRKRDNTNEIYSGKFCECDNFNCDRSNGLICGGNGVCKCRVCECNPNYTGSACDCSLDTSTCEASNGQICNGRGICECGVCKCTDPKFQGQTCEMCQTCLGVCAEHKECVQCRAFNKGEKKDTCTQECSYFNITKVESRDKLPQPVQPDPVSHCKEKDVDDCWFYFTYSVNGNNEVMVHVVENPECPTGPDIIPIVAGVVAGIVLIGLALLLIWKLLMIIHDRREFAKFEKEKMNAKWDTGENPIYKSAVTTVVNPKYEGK
Protocol: Assay of Antagonistic Activity to VCAM-1/α4β1 Integrin Binding Under the Existence of Blood Serum
The capacity of a test substance antagonistic to the binding of cell strain of human T cells, Jurkat (ATCC TIB-152), known to express integrin α4β1, to VCAM-1 was determined.
Fifty μl/well of a solution (500 ng/ml) of recombinant human VCAM-1/Fc (R & D systems) diluted with buffer A (0.1 M NaHCO3, pH 9.6) was added to a 96-well microtiter plate (Nunc Maxisorp). After the incubation at 4° C. overnight and washing once with PBS, a buffer (buffer B) obtained by diluting Block Ace (Snow Brand Milk Products Co., Ltd.) with PBS to ½ concentration was added in an amount of 150 μl/well. After the incubation at room temperature for 2 hours, buffer B was removed and the plate was washed with PBS once.
Jurkat cells were washed with Dulbecco modified Eagle medium (SIGMA, hereinafter referred to as “DMEM”) once. Then, the cells were again suspended in a binding buffer (DMEM containing 20 mM HEPES, 0.1% BSA, 2 mM MnCl2 and 50% human blood serum (Sigma)) to become 1×10^6 cells/mL.
Sixty μl of a test substance of various concentrations obtained by the dilution with the binding buffer was added to a round-bottom, 96-well plate (IWAKI). Immediately thereafter, 60 μl of the Jurkat cells (1×10^6 cells/ml) were added thereto and shaken on a plate shaker (IKA-Labortechnik, IKA-SCHUTTLER MTS-4) at 1000 rpm for 10 seconds. In 120 μL of the cell suspension to which the test substance was added, each 100 μL thereof was transferred on the VCAM-1/Fc-coated plate and incubated in dark place at room temperature for 60 minutes. After the shaking on the plate shaker at 1000 rpm for 30 seconds, the solution was immediately removed. Then, the unbound cells were removed by washing them with PBS once. A buffer C (PBS containing 0.82% Triton X-100) was added to the plate in an amount of 70 μL/well. After the shaking on the plate shaker at 1000 rpm for 5 minutes, the bound Jurkat cells were lysed. After centrifuging the cells on a plate centrifuge (SIGMA 4-15C) at room temperature at 2500 rpm for 5 minutes, 50 μL of supernatant thereof was transferred to a 96-well microtiter plate (Nunc Maxisorp). Each 50 μL of Substrate Buffer (Promega, CytoTox 96 Non-Radioactive Cytotoxicity Assay) was added thereto, shaken on a plate shaker at 1000 rpm for 10 seconds and reacted in dark place at room temperature for 30 minutes. Then, each 50 μL of Stop Solution (Promega, CytoTox 96 Non-Radioactive Cytotoxicity Assay) was added thereto and shaken on a plate shaker at 1000 rpm for 10 seconds. […] The absorbance thus obtained detects an activity of lactate dehydrogenase (LDH) dissolved in the supernatant of each well. Namely, the absorbance is proportional to the number of remaining Jurkat cells on the plate via the binding to VCAM-1. The test was conducted in duplicate and the binding rate of each test substance in various concentrations was determined while the absorbance of the test substance-free well was determined to be 100% and the absorbance of the Jurkat-cell-free well was determined to be 0%. The concentration for the 50% inhibition of binding, IC50, was calculated.

Structure (SMILES) | clearance [1] [mL/min/kg] | IC50 [2] [nM]
CNCc1ccc2c(c1)c(=O)n(-c1ccc(C[C@H](NC(=O)c3c(Cl)cccc3Cl)C(=O)O)cc1)c(=O)n2C [Example 99] | 3.83 | 11.2
Cn1c(=O)n(-c2ccc(C[C@H](NC(=O)c3c(Cl)cccc3Cl)C(=O)O)cc2)c(=O)c2cc(-n3ccnc3N)ccc21 [Example 59] | 5.33 | –
CCNCc1ccc2c(c1)c(=O)n(-c1ccc(C[C@H](NC(=O)c3c(Cl)cccc3Cl)C(=O)O)cc1)c(=O)n2C [Example 54] | 4.5 | 14.5

Second part, the compound after the results:

clearance [1] [mL/min/kg] | IC50 [2] [nM] | Structure (SMILES)
5.5 | – | CSc1ccc2c(c1)c(=O)n(-c1ccc(C[C@H](NC(=O)c3c(Cl)cccc3Cl)C(=O)O)cc1)c(=O)n2C [Example 37, N-(2,6-dichlorobenzoyl)-4-[1-methyl-6-(methylthio)-2,4-quinazoline-dione-3-yl]-L-phenylalanine]
3.17 | – | Cn1c(=O)n(-c2ccc(C[C@H](NC(=O)c3c(Cl)cccc3Cl)C(=O)O)cc2)c(=O)c2ccc(N3CCCC3)cc21.O=C(O)C(F)(F)F [Example 40, N-(2,6-dichlorobenzoyl)-4-[1-methyl-7-(pyrrolidine-1-yl)-2,4-quinazoline-dione-3-yl]-L-phenylalanine trifluoroacetate]
5.17 | 10.5 | CN(C)Cc1ccc2c(=O)n(-c3ccc(C[C@H](NC(=O)c4c(Cl)cccc4Cl)C(=O)O)cc3)c(=O)n(C)c2c1.O=C(O)C(F)(F)F [Example 34, N-(2,6-dichlorobenzoyl)-4-[7-[(dimethylamino)methyl]-1-methyl-2,4-quinazoline-dione-3-yl]-L-phenylalanine Trifluoroacetate]
